# Experimental data: US6420330B1, “Use of quaternary carboxylic acid alkanolamine ester salts as microbicide agents” (Cognis Deutschland GmbH, priority 1997, dated 2002)
# Assays:
# Test in all cases: DGHM suspension test, microbicidal activity
# Format in all cases: cell-based
# [1] = test system: Pseudomonas aeruginosa ATCC 15442
# Description: (§1) The microbicidal activity of the quanterary carboxylic acid alkanolamine ester salts used in accordance with the invention was tested against the following selected test germs:
# (§2) The effectiveness of the compound to be tested was determined by the suspension test in accordance with the guidelines of the Deutsche Gesellschaft for Hygiene and Mikrobiologie (DGHM). Test solutions containing quatemary carboxylic acid alkanolamine ester salts in the quantities shown in the Tables of 50, 100, 200, 400 and 800 mg/l were prepared using water with a hardness of 17° dH and optionally isopropanol.
# (§3) At room temperatures, quantities of 0.1 ml test germ suspension were pipetted into test tubes containing 10 ml of the test solutions described above and mixed. After various contact times of 5, 15, 30 and 60 minutes, 1 ml of material was taken from the test tubes by pipette and transferred to 9 ml inactivator solution (inactivators: 3.0% Tween, 0.3% lecithin, 0.1% histidine). After in activation for at least 5 and at most 30 minutes, the living germ count was determined by plating out onto casein peptone-soybean flour peptone (CaSo)-agar plates. Using a spiral plater, the inactivating mixture was directly plated out onto CaSo-agar. The samples were incubated for 24 to 72 hours at 37° C. and macroscopically evaluated for growth. The destruction time or the residual germ count was determined in this way. The germ count of an unchallenged water control is related to the germ count of the inactivated test solution taking the dilution into account. The higher the value, the better the microbicidal effect. The symbol < means that the logarithmic reductuon factor is below the indicated value or, in the case of the symbol >, above the indicated value. The abbreviation CU stands for “concentration used”.
# [2] = test system: Staphylococcus aureus ATCC 6538
# Description: as §1, §2, §3
# [3] = test system: Candida albicans ATCC 10231
# Description: as §1, §2, §3
# [4] = CU 50 mg/l, contact time 5 mins.
# [5] = CU 50 mg/l, contact time 15 mins.
# [6] = CU 50 mg/l, contact time 30 mins.
# [7] = CU 50 mg/l, contact time 60 mins.
# [8] = CU 100 mg/l, contact time 5 mins.
# [9] = CU 100 mg/l, contact time 15 mins.
# [10] = CU 100 mg/l, contact time 30 mins.
# [11] = CU 100 mg/l, contact time 60 mins.
# [12] = CU 200 mg/l, contact time 5 mins.
# [13] = CU 200 mg/l, contact time 15 mins.
# [14] = CU 200 mg/l, contact time 30 mins.
# [15] = CU 200 mg/l, contact time 60 mins.
# [16] = CU 400 mg/l, contact time 5 mins.
# [17] = CU 400 mg/l, contact time 15 mins.
# [18] = CU 400 mg/l, contact time 30 mins.
# [19] = CU 400 mg/l, contact time 60 mins.
# [20] = CU 800 mg/l, contact time 5 mins.
# [21] = CU 800 mg/l, contact time 15 mins.
# [22] = CU 800 mg/l, contact time 30 mins.
# [23] = CU 800 mg/l, contact time 60 mins.
compound,measurement,setting,value
"CCCCCCCCCCCC(=O)OCC[N+](C)(C)CCOC(=O)CCCCCCCCCCC.COS(=O)(=O)[O-] [Example 8, dimethyl diethanolammonium dilauric acid ester methosulfate]",logarithmic reduction factor,[1]; [4],<1.88
same,logarithmic reduction factor,[1]; [5],<1.93
same,logarithmic reduction factor,[1]; [6],<1.80
same,logarithmic reduction factor,[1]; [7],<1.90
same,logarithmic reduction factor,[1]; [8],<1.88
same,logarithmic reduction factor,[1]; [9],<1.93
same,logarithmic reduction factor,[1]; [10],<1.80
same,logarithmic reduction factor,[1]; [11],3.05
same,logarithmic reduction factor,[1]; [12],<1.88
same,logarithmic reduction factor,[1]; [13],<1.93
same,logarithmic reduction factor,[1]; [14],3.05
same,logarithmic reduction factor,[1]; [15],3.77
same,logarithmic reduction factor,[2]; [4],<1.39
same,logarithmic reduction factor,[2]; [5],3.24
same,logarithmic reduction factor,[2]; [6],4.28
same,logarithmic reduction factor,[2]; [7],4.23
same,logarithmic reduction factor,[2]; [8],1.98
same,logarithmic reduction factor,[2]; [9],3.40
same,logarithmic reduction factor,[2]; [10],5.29
same,logarithmic reduction factor,[2]; [11],>5.60
same,logarithmic reduction factor,[2]; [12],2.34
same,logarithmic reduction factor,[2]; [13],4.64
same,logarithmic reduction factor,[2]; [14],>5.51
same,logarithmic reduction factor,[2]; [15],>5.60
"CCCCCCCC(=O)OCC[N+](C)(C)CCOC(=O)CCCCCCC.COS(=O)(=O)[O-] [Example 1, dimethyl diethanolammonium dicaprylic acid ester methosulfate]",logarithmic reduction factor,[1]; [4],<1.83
same,logarithmic reduction factor,[1]; [5],<1.47
same,logarithmic reduction factor,[1]; [6],<1.55
same,logarithmic reduction factor,[1]; [7],<1.56
same,logarithmic reduction factor,[1]; [8],<1.83
same,logarithmic reduction factor,[1]; [9],<1.47
same,logarithmic reduction factor,[1]; [10],<1.55
same,logarithmic reduction factor,[1]; [11],<1.56
same,logarithmic reduction factor,[1]; [12],<1.83
same,logarithmic reduction factor,[1]; [13],<1.47
same,logarithmic reduction factor,[1]; [14],<1.55
same,logarithmic reduction factor,[1]; [15],<1.56
same,logarithmic reduction factor,[1]; [16],<1.83
same,logarithmic reduction factor,[1]; [17],<1.47
same,logarithmic reduction factor,[1]; [18],3.22
same,logarithmic reduction factor,[1]; [19],4.41
same,logarithmic reduction factor,[1]; [20],>5.83
same,logarithmic reduction factor,[1]; [21],>5.47
same,logarithmic reduction factor,[1]; [22],>5.55
same,logarithmic reduction factor,[1]; [23],>5.56
same,logarithmic reduction factor,[2]; [4],<1.32
same,logarithmic reduction factor,[2]; [5],<1.71
same,logarithmic reduction factor,[2]; [6],<1.23
same,logarithmic reduction factor,[2]; [7],<1.32
same,logarithmic reduction factor,[2]; [8],<1.32
same,logarithmic reduction factor,[2]; [9],<1.71
same,logarithmic reduction factor,[2]; [10],<1.23
same,logarithmic reduction factor,[2]; [11],<1.32
same,logarithmic reduction factor,[2]; [12],<1.32
same,logarithmic reduction factor,[2]; [13],<1.71
same,logarithmic reduction factor,[2]; [14],<1.23
same,logarithmic reduction factor,[2]; [15],<1.32
same,logarithmic reduction factor,[2]; [16],<1.32
same,logarithmic reduction factor,[2]; [17],<1.1
same,logarithmic reduction factor,[2]; [18],1.95
same,logarithmic reduction factor,[2]; [19],3.54
same,logarithmic reduction factor,[2]; [20],<1.32
same,logarithmic reduction factor,[2]; [21],<3.59
same,logarithmic reduction factor,[2]; [22],<3.96
same,logarithmic reduction factor,[2]; [23],>5.32
same,logarithmic reduction factor,[3]; [4],<0.50
same,logarithmic reduction factor,[3]; [5],<0.37
same,logarithmic reduction factor,[3]; [6],<0.35
same,logarithmic reduction factor,[3]; [7],<0.36
same,logarithmic reduction factor,[3]; [8],<0.50
same,logarithmic reduction factor,[3]; [9],0.41
same,logarithmic reduction factor,[3]; [10],0.60
same,logarithmic reduction factor,[3]; [11],0.70
same,logarithmic reduction factor,[3]; [12],1.53
same,logarithmic reduction factor,[3]; [13],2.53
same,logarithmic reduction factor,[3]; [14],2.91
same,logarithmic reduction factor,[3]; [15],3.61
same,logarithmic reduction factor,[3]; [16],>4.5
same,logarithmic reduction factor,[3]; [17],>4.37
same,logarithmic reduction factor,[3]; [18],>4.35
same,logarithmic reduction factor,[3]; [19],>4.36
same,logarithmic reduction factor,[3]; [20],>4.50
same,logarithmic reduction factor,[3]; [21],>4.37
same,logarithmic reduction factor,[3]; [22],>4.35
same,logarithmic reduction factor,[3]; [23],>4.36
"CCCCCCCCCCCC(=O)OCC[N+](C)(CCO)CCOC(=O)CCCCCCCCCCC.COS(=O)(=O)[O-] [Example 5, methyl triethanolammonium dilauric acid ester methosulfate]",logarithmic reduction factor,[1]; [4],<1.85
same,logarithmic reduction factor,[1]; [5],<1.79
same,logarithmic reduction factor,[1]; [6],<1.71
same,logarithmic reduction factor,[1]; [7],<1.51
same,logarithmic reduction factor,[1]; [8],<1.85
same,logarithmic reduction factor,[1]; [9],<1.79
same,logarithmic reduction factor,[1]; [10],<1.71
same,logarithmic reduction factor,[1]; [11],<1.81
same,logarithmic reduction factor,[1]; [12],<1.85
same,logarithmic reduction factor,[1]; [13],<1.79
same,logarithmic reduction factor,[1]; [14],<1.71
same,logarithmic reduction factor,[1]; [15],<1.81
same,logarithmic reduction factor,[1]; [16],<1.85
same,logarithmic reduction factor,[1]; [17],<1.79
same,logarithmic reduction factor,[1]; [18],<1.71
same,logarithmic reduction factor,[1]; [19],3.84
same,logarithmic reduction factor,[1]; [20],<1.85
same,logarithmic reduction factor,[1]; [21],3.43
same,logarithmic reduction factor,[1]; [22],3.95
same,logarithmic reduction factor,[1]; [23],4.40
same,logarithmic reduction factor,[2]; [4],<1.79
same,logarithmic reduction factor,[2]; [5],<1.73
same,logarithmic reduction factor,[2]; [6],2.53
same,logarithmic reduction factor,[2]; [7],3.88
same,logarithmic reduction factor,[2]; [8],<1.79
same,logarithmic reduction factor,[2]; [9],2.38
same,logarithmic reduction factor,[2]; [10],3.80
same,logarithmic reduction factor,[2]; [11],5.21
same,logarithmic reduction factor,[2]; [12],2.52
same,logarithmic reduction factor,[2]; [13],4.25
same,logarithmic reduction factor,[2]; [14],>5.75
same,logarithmic reduction factor,[2]; [15],>5.86
same,logarithmic reduction factor,[2]; [16],2.70
same,logarithmic reduction factor,[2]; [17],>5.73
same,logarithmic reduction factor,[2]; [18],>5.75
same,logarithmic reduction factor,[2]; [19],>5.86
same,logarithmic reduction factor,[2]; [20],3.85
same,logarithmic reduction factor,[2]; [21],>5.73
same,logarithmic reduction factor,[2]; [22],>5.75
same,logarithmic reduction factor,[2]; [23],>5.86
"CCCCCCCCCC(=O)OCC[N+](C)(CCOC(=O)CCCCCCCCC)CCOC(=O)CCCCCCCCC.COS(=O)(=O)[O-] [Example 9, methyl triethanolammonium tricapric acid ester methosulfate]",logarithmic reduction factor,[1]; [8],<1.88
same,logarithmic reduction factor,[1]; [9],<1.93
same,logarithmic reduction factor,[1]; [10],<1.80
same,logarithmic reduction factor,[1]; [11],<1.90
same,logarithmic reduction factor,[1]; [12],<1.88
same,logarithmic reduction factor,[1]; [13],<1.93
same,logarithmic reduction factor,[1]; [14],<1.80
same,logarithmic reduction factor,[1]; [15],2.94
same,logarithmic reduction factor,[1]; [16],<1.88
same,logarithmic reduction factor,[1]; [17],<1.93
same,logarithmic reduction factor,[1]; [18],3.27
same,logarithmic reduction factor,[1]; [19],3.72
same,logarithmic reduction factor,[2]; [4],<1.39
same,logarithmic reduction factor,[2]; [5],<1.59
same,logarithmic reduction factor,[2]; [6],<1.51
same,logarithmic reduction factor,[2]; [7],<1.60
same,logarithmic reduction factor,[2]; [8],<1.39
same,logarithmic reduction factor,[2]; [9],<1.59
same,logarithmic reduction factor,[2]; [10],<1.51
same,logarithmic reduction factor,[2]; [11],2.09
same,logarithmic reduction factor,[2]; [12],<1.39
same,logarithmic reduction factor,[2]; [13],<1.59
same,logarithmic reduction factor,[2]; [14],1.83
same,logarithmic reduction factor,[2]; [15],2.97
